In patent US20140121178A1, “METHOD AND IMPROVED PHARMACEUTICAL COMPOSITION FOR IMPROVING THE ABSORPTION OF AN ESTER PRODRUG” (ACENDA PHARMA INC., priority 2011, published 2014):
Where a name gives a salt, the structure may show the parent alone. One block for each molecule: values may come before it.

Experiments:
[1] = Rat oral pharmacokinetics of olmesartan medoxomil with or without triacetin; assay type: in vivo, rats (Sprague-Dawley); details: rats, oral administration, plasma LC-MS/MS
Procedure: Water was available ad libitum throughout the experiment. Dosing solutions of olmesartan medoxomil (5 mg/ml) were prepared in a vehicle of DMSO/PEG400 (10/90, v/v) or DMSO/PEG400/triacetin (10/80/10, v/v). […] Each rat received olmesartan medoxomil (5 mg/kg) in DMSO/PEG400 (10/90, v/v) or olmesartan medoxomil (5 mg/kg) in DMSO/PEG400/triacetin (10/80/10, v/v).

in vivo = details: male, Sprague-Dawley, rat, po, 30 mg/kg
Procedure: Male rats (Sprague-Dawley, 300-400 g) were surgically implanted with jugular-vein cannulas one day prior to dosing and fasted overnight (about 18-20 hours) prior to dosing. Water was available ad libitum throughout the experiment. Dosing solutions of olmesartan medoxomil (5 mg/ml) were prepared in a vehicle of DMSO/PEG400 (10/90, v/v) or DMSO/PEG400/triacetin (10/80/10, v/v). Single oral doses of the olmesartan medoxomil and olmesartan medoxomil/triacetin were each administered separately to a group of 3 male rats by gavage. Each rat received olmesartan medoxomil (5 mg/kg) in DMSO/PEG400 (10/90, v/v) or olmesartan medoxomil (5 mg/kg) in DMSO/PEG400/triacetin (10/80/10, v/v).
Blood samples (0.15 ml/rat) were collected from each rat via the jugular-vein cannula at 0, 0.25, 0.5, 1, 2, 4, 6, 8, and 24 hours after dosing. Plasma was separated from blood cells by centrifugation and frozen at −20° C. until analysis. […] A plasma concentration-time curve was plotted based on the obtained data.

[2] = Rat oral pharmacokinetics of clopidogrel bisulfate (3 mg/kg) with or without triethyl citrate/triacetin; assay type: in vivo, rats; details: Sprague-Dawley, plasma
Procedure: Serial plasma samples were obtained from each rat and concentrations of clopidogrel and clopidogrel acid in the plasma samples were determined by LC-MS/MS.

CE from porcine liver [3] = assay: In vitro CE-mediated hydrolysis of olmesartan medoxomil in the presence of ester excipients; assay type: in vitro ADME; details: for effect on CE-mediated hydrolysis of olmesartan medoxomil (in words): compared with lecithin, Table 1; for preliminary screen of ester excipients for impeding hydrolysis of olmesartan medoxomil by CE in vitro: preliminary results
Procedure: Various known pharmaceutical ester excipients including triacetin, glyceryl tristearate, triethyl citrate, lecithin, tri-n-butyl citrate, acetyl triethyl citrate, and acetyl tri-n-butyl citrate were respectively tested to determine whether any of them impedes hydrolysis of olmesartan medoxomil by CE in vitro.
Test solutions (a) to (f) were prepared respectively as follows: (a) 10 μM of olmesartan medoxomil dissolved in 10% DMSO (dimethyl sulfoxide)/90% PEG400 (w/w, stability control); (b) 10 μM of olmesartan medoxomil dissolved in 10% DMSO/90% PEG400 (w/w, blank control) (c) 10 μM of olmesartan medoxomil dissolved in 10% DMSO/12% triacetin/78% PEG400 (w/w/w); (d) 10 μM of olmesartan medoxomil dissolved in 10% DMSO/12% triethyl citrate/78% PEG400 (w/w/w); (e) 10 μM of olmesartan medoxomil dissolved in 10% DMSO/12% lecithin/78% PEG400 (w/w/w); and (f) 10 μM of olmesartan medoxomil dissolved in 10% DMSO/6% triacetin/6% triethyl citrate/78% PEG400 (w/w/w/w).
CE from porcine liver (17 units/mg, available from Sigma-Aldrich) was dissolved in simulated intestinal fluid (SIF, pH=6.8) to yield a CE solution (17 units/ml). SIF was prepared by dissolving 0.6805 g of KH2PO4 and 0.0896 g of NaOH in 100 ml of de-ionized water.
Each 70 μl of olmesartan medoxomil solution (i.e., solutions (a)-(f)) was mixed with 70 μl of SIF and thereby forming mixtures (a) to (f). Each of the mixtures (a) to (f) was transferred to one well of a 96-well plate, and 60 μl each of the CE solution was added to respective wells containing mixtures (b) to (f) to initiate the reaction. In addition, sixty (60) μl of SIF without CE was added to mixture (a). This incubation mixture without CE was used as a stability control to determine the chemical stability of olmesartan medoxomil in the incubation mixture. The mixtures were incubated for 20 minutes under the air at 37° C. with constant shaking on a temperature-controlled heating block.
At the end of the 20-minute incubation, 100 μl of ice-cold acetonitrile was added to each well to terminate the reaction. Each mixture was vortexed and centrifuged at 15,000×g for 20 min at room temperature. The supernatants were tested in HPLC/UV analysis, in which the concentration of olmesartan medoxomil in each mixture was measured. Percentages (%) of olmesartan medoxomil remaining in the mixtures were calculated based on the obtained data.

CE from porcine liver [4] = assay: In vitro CE-mediated hydrolysis of clopidogrel in the presence of triacetin, triethyl citrate or both; assay type: in vitro ADME; details: Table 2
[5] = Rat oral pharmacokinetics of capecitabine with or without triethyl citrate; assay type: in vivo, rats; details: capecitabine in rat plasma, capecitabine 5 mg/kg, triethyl citrate 45 mg/kg where given
Procedure: Capecitabine is an ester prodrug, which is hydrolyzed mainly by CE2 in the GI track and CE1 in the liver and then converted by two enzymes to its active drug (5-fluorouracil) in the tumor after oral administration of capecitabine to cancer patients. […] Each rat received capecitabine (5 mg/kg) in DMSO or capecitabine (5 mg/kg) in DMSO/triethyl citrate (45 mg/kg).

[6] = Rat oral pharmacokinetics of capecitabine with or without triethyl citrate/triacetin; assay type: in vivo, rats; details: capecitabine in rat plasma, capecitabine 5 mg/kg, triethyl citrate 22.5 mg/kg + triacetin 22.5 mg/kg where given
Procedure: In a rat study similar to the study described above, each rat received capecitabine (5 mg/kg) in DMSO or capecitabine (5 mg/kg) in DMSO/triethyl citrate (22.5 mg/kg)/triacetin (22.5 mg/kg).

[7] = mean n=3, read-out: AUC0-24 hr of capecitabine

Compound: CC(=O)OCC(COC(C)=O)OC(C)=O [triacetin]
effect on CE-mediated hydrolysis of olmesartan medoxomil (in words) (CE from porcine liver [3]): retards CE-mediated hydrolysis of olmesartan medoxomil
preliminary screen of ester excipients for impeding hydrolysis of olmesartan medoxomil by CE in vitro (CE from porcine liver [3]): promising candidates
effect on CE-mediated hydrolysis of clopidogrel (in words) (CE from porcine liver [4]): retard CE-mediated hydrolysis of clopidogrel

Compound: CCCCCOC(=O)Nc1nc(=O)n([C@@H]2O[C@H](C)[C@@H](O)[C@H]2O)cc1F [Capecitabine, capecitabine]
Cmax ([5]; mean n=3): 11.8 ng/mL
Tmax ([5]; mean n=3): 0.8 h
AUC(0-t) [5, 7]: 34 ng·h/mL
Cmax ([6]; mean n=3): 8.9 ng/mL
Tmax ([6]; mean n=3): 0.4 h
AUC(0-t) [6, 7]: 15 ng·h/mL

Compound: CCOC(=O)CC(O)(CC(=O)OCC)C(=O)OCC [triethyl citrate]
effect on CE-mediated hydrolysis of olmesartan medoxomil (in words) (CE from porcine liver [3]): retards CE-mediated hydrolysis of olmesartan medoxomil
preliminary screen of ester excipients for impeding hydrolysis of olmesartan medoxomil by CE in vitro (CE from porcine liver [3]): promising candidates
effect on CE-mediated hydrolysis of clopidogrel (in words) (CE from porcine liver [4]): retard CE-mediated hydrolysis of clopidogrel
effectiveness in impeding CE-mediated hydrolysis of clopidogrel compared with triacetin and lecithin (in words) (CE from porcine liver [4]): more effective in impeding CE-mediated hydrolysis of clopidogrel than triacetin and lecithin

More lines, now with the values ahead:

hydrolysis of olmesartan medoxomil to olmesartan after absorption [1]: completely hydrolyzed to olmesartan
Compound: CCCc1nc(C(C)(C)O)c(C(=O)OCc2oc(=O)oc2C)n1Cc1ccc(-c2ccccc2-c2nnn[nH]2)cc1 [Olmesartan Medoxomil, olmesartan medoxomil]

AUC(0-t) (in vivo): 28 ng·h/mL
Cmax (in vivo): 7.3 ng/mL
Tmax (in vivo): 4.1 h
Cmax [2]: 0.8 ng/mL
Tmax [2]: 2.9 h
AUC(0-t) ([2]; read-out: AUC0-24 hr of clopidogrel): 2 ng·h/mL
Compound: COC(=O)[C@H](c1ccccc1Cl)N1CCc2sccc2C1 [Clopidogrel Bisulfate, clopidogrel bisulfate]
